How the values were obtained:
[1] = system: Cydia pomonella (Codling Moth); test: Example B8: activity against Cydia pomonella (paraffin-coated diet cubes); format: in vivo; details: 336 h, 14 days incubation at 26° C.
Description: Activity Against Cydia pomonella (Codling Moth)
Standard Cydia diet cubes (1.5 cm width) are pierced with a tooth-pick and are immersed in liquid paraffin (ca. 80° C.). After the paraffin coat has hardened, an aqueous emulsion containing 400 ppm of active ingredient is applied using a De Vilbis sprayer (25 ml, 1 bar). After the spray coating has dried, the cubes are put into plastic containers which are then populated with two freshly hatched Cydia pomonella (1st instar). The containers are then closed with a plastic cap. After 14 days incubation at 26° C. and 40-60% relative humidity, the survival rate of the caterpillars as well as their growth regulation is determined. In this test, compounds listed in Table P above show good activity. In particular compounds P.10, P.11, P.12, P.18, P.19, P.20, P.29, P.30, P.31, P.32, P.33, P.34, P.35, P.37, P.38, P.39, P.42, and P.43 show an activity of over 80% at a concentration of 400 ppm.

[2] = system: Heliothis virescens (Tobacco Budworm); test: Example B2: activity against Heliothis virescens, ovo-larvicide, feeding/contact, curative; format: in vivo; details: 96 h, 4 days incubation, eggs 0-24 h old
Description: Activity Against Heliothis virescens (Tobacco Budworm)
(Ovo-Larvicide, Feeding/Contact Activity, Curative)
Eggs (0-24 h old) are placed in 24-well microtiter plate on artificial diet and treated with test solutions by pipetting. After an incubation period of 4 days, samples are checked for egg mortality, larval mortality, and growth regulation.

[3] = system: Myzus persicae (Green Peach Aphid); test: Example B6: activity against Myzus persicae, mixed population, systemic/feeding, curative (pea seedling roots); details: 144 h, read-out: activity
[4] = system: Thrips tabaci (Onion Thrips); test: Example B7: activity against Thrips tabaci, mixed population, feeding/residual contact, preventive; details: 144 h, read-out: activity
[5] = system: Frankliniella occidentalis (Western Flower Thrips); test: Example B9: activity against Frankliniella occidentalis (bean leaf discs or bean plants); format: in vivo; details: foliar, 6 days (leaf discs) or 14 days (plants) after infestation
Description: Activity Against Frankliniella occidentalis (Western Flower Thrips)
Bean leaf discs on agar in petri dishes or bean plants in a spray chamber are treated with diluted test solutions. After drying leaf discs are cut and placed in plastic cups on the surface of an agar layer and infested with mixed population. 6 days (leaf discs) or 14 days (plants) after the infestation, samples are checked for reduction of treated population and compared to the non treated population.

[6] = system: Plutella xylostella (Diamond Back Moth); test: Example B3: Plutella xylostella, larvicide, feeding/residual contact, preventive (artificial diet MTP); format: in vivo; details: 120 h, 5 days incubation, L2 larvae
Outline: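 Artificial diet in multiwell plates treated with test solution, dried, then infested with 10–15 L2 larvae per well. After 5 days, larval mortality, antifeedant effect and growth regulation were scored.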

[7] = system: Diabrotica balteata (Corn Root Worm); test: Example B4: Diabrotica balteata, larvicide, feeding/residual contact, preventive; format: in vivo; details: 120 h, 5 days incubation, L2 larvae
Outline: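 Artificial diet treated with test solution, dried, then infested with 6-10 L2 larvae per well. Larval mortality, antifeedant effect and growth regulation checked after 5 days of incubation.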

[8] = system: Myzus persicae (Green Peach Aphid); test: Example B5: activity against Myzus persicae, mixed population, feeding/residual contact, preventive (sunflower leaf discs); details: foliar, 144 h, read-out: activity
[9] = system: Spodoptera littoralis (Egyptian Cotton Leafworm); test: Example B1: activity against Spodoptera littoralis, larvicide, feeding/residual contact, preventive (cotton leaf discs); format: in vivo; details: foliar, 72 h, 3 days after treatment, L1 larvae
[10] = system: Aphis craccivora (Pea Aphid); test: Example B11: activity against Aphis craccivora, mixed population, systemic/feeding; format: in vivo; details: 144 h, 6 days, roots in test solution (systemic)
Excerpt: (§1) Activity Against Aphis craccivora (Pea Aphid)
(§2) (Mixed Population, Systemic/Feeding)
(§3) 6 days later, samples are checked for mortality.

[11] = system: Aphis craccivora (Pea Aphid); test: Example B10: activity against Aphis craccivora, mixed population, contact/feeding; format: in vivo; details: 144 h, 6 days after treatment, spray (contact/feeding)
Excerpt: as §1
(Mixed Population, Contact/Feeding)
6 days after treatment, samples are checked for mortality.

[12] = system: Aphis aossypii (Cotton Aphid); test: Example B13: activity against cotton aphid, mixed population, systemic/feeding; format: in vivo; details: 144 h, 6 days, roots in test solution (systemic)
Excerpt: Activity Against Aphis aossypii (Cotton Aphid)
as §2, §3

Measured: pest or weed control at 400 ppm

CC(C)NC(=O)c1c(NC(=O)c2cc(C(F)(F)F)nn2-c2ncccc2Cl)c(Cl)cc2cn[nH]c12 [P.10]
not listed: [12]
> 80%: all other assays above

COc1cc(C(=O)Nc2c(C)cc3cn[nH]c3c2C(=O)NC(C)C)n(-c2ncccc2Cl)n1 [P.27, 6-{[2-(3-chloro-pyridin-2-yl)-5-methoxy-2H-pyrazole-3-carbonyl]-amino}-5-methyl-1H-indazole-7-carboxylic acid isopropylamide]
not listed: [1]
> 80%: all other assays above

COc1cc(C(=O)Nc2c(C)cc3cn[nH]c3c2C(=O)NC2(C3CC3)CC2)n(-c2ncccc2Cl)n1 [P.28, 6-{[2-(3-chloro-pyridin-2-yl)-5-methoxy-2H-pyrazole-3-carbonyl]-amino}-5-methyl-1H-indazole-7-carboxylic acid bicyclopropyl-1-ylamide]
not listed: [1]
> 80%: all other assays above

CSCC(C)(C)NC(=O)c1c(NC(=O)c2cc(C(F)(F)F)nn2-c2ncccc2Cl)c(Br)cc2cn[nH]c12 [P.33]
not listed: [11] | [12]
> 80%: all other assays above

CC(C)(CS(C)(=O)=O)NC(=O)c1c(NC(=O)c2cc(C(F)(F)F)nn2-c2ncccc2Cl)c(Br)cc2cn[nH]c12 [P.34]
not listed: [10] | [11] | [12]
> 80%: all other assays above

COc1cc(C(=O)Nc2c(Br)cc3cn[nH]c3c2C(=O)NC(C)C)n(-c2ncccc2Cl)n1 [P.35]
not listed: [10] | [11] | [12]
> 80%: all other assays above

CC(C)NC(=O)c1c(NC(=O)c2cc(C(F)F)nn2-c2ncccc2Cl)c(Cl)cc2cn[nH]c12 [P.39]
not listed: [11]
> 80%: all other assays above

COc1cc(C(=O)Nc2c(Cl)cc3cn[nH]c3c2C(=O)NC(C)C)n(-c2ncccc2Cl)n1 [P.40]
not listed: [1] | [7]
> 80%: all other assays above

Cc1cc2cn[nH]c2c(C(=O)NC(C)C)c1NC(=O)c1cc(C(F)(F)F)nn1-c1ncccc1Cl [P.44]
not listed: [1]
> 80%: all other assays above

O=C(NC1(C2CC2)CC1)c1c(NC(=O)c2cc(Br)nn2-c2ncccc2Cl)c(Cl)cc2cn[nH]c12 [P.46]
not listed: [1] | [12]
> 80%: all other assays above

Cc1cc2cn[nH]c2c(C(=O)NC2(C3CC3)CC2)c1NC(=O)c1cc(C(F)(F)F)nn1-c1ncccc1Cl [P.49]
not listed: [1] | [12]
> 80%: all other assays above

Cc1cc2cn[nH]c2c(C(=O)NC(C)C)c1NC(=O)c1cc(C(F)F)nn1-c1ncccc1Cl [P.56, 6-{[2-(3-chloro-pyridin-2-yl)-5-difluoromethyl-2H-pyrazole-3-carbonyl]-amino}-5-methyl-1H-indazole-7-carboxylic acid isopropylamide]
not listed: [1] | [7] | [11]
> 80%: all other assays above

COc1cc(C(=O)Nc2c(Cl)cc3cn[nH]c3c2C(=O)NC(C)(C)CS(C)(=O)=O)n(-c2ncccc2Cl)n1 [P.60]
not listed: [1] | [4] | [7] | [11]
> 80%: all other assays above

COc1cc(C(=O)Nc2c(Cl)cc3cn[nH]c3c2C(=O)NC2(C)CS(=O)(=O)C2)n(-c2ncccc2Cl)n1 [P.61, 5-chloro-6-{[2-(3-chloro-pyridin-2-yl)-5-methoxy-2H-pyrazole-3-carbonyl]-amino}-1H-indazole-7-carboxylic acid (3-methyl-1,1-dioxo-1lambda*6*-thietan-3-yl)-amide]
not listed: [1] | [4] | [7] | [11]
> 80%: all other assays above
